# According to patent US20250270170A1, “2,3-DIMETHOXY-5-METHYL-1,4-BENZOQUINONE ALKYL ALCOHOL DERIVATIVE AND USE THEREOF” (BEIJING ANJIANXI BIO-MEDICAL TECHNOLOGY CO., LTD., priority 2021, published 2025):
# Where “and” joins values, the source holds several entries; their conditions need not be identical. Identical values can stand only once. Marks after values point to notes of the source that are not given here.
# Legend:
# [1] = tested on: NCI-H460 cells; test: Colony formation assay, NCI-H460; type: cell-based, human; settings: 50 μM and 150 μM vs 0 μM, about 2 weeks
# Method: (1) The cell status was observed under a microscope. Cells in the logarithmic growth phase were selected and digested to make a cell suspension. 20 μl of the cell suspension was taken with a pipette and added to the CountStar disposable cell counting plate for cell counting, and the counting results were recorded.
# (2) A 6-well culture plate was used for colony formation assay. Approximately 1,000 cells were inoculated into each well, and the complete culture medium was added to make up the volume to 2.5 ml per well. The cells were shaked in a figure-8 pattern to disperse the cells evenly. The next day, the compound of formula (I) at different concentrations (0 μM, 50 μM, and 150 μM) were added to the corresponding wells according to the assay plan, and incubated in an incubator at 37° C. with 5% CO2 for about 2 weeks. The culture was terminated when visible colonies appeared.
# (3) The culture plate was taken out, and the old culture medium was discarded. The cells were gently washed twice with PBS.
# (4) 500 μl of 4% paraformaldehyde fixative was added to each well to fix the cells at room temperature for 15 minutes, and then the fixative was discarded.
# (5) 500 μl of 0.1% crystal violet solution was added to each well, and cells were stained at room temperature for at least 15 minutes. The crystal violet was discarded, and the staining solution was slowly washed away with running water. […]
# [2] = tested on: cisplatin-induced acute kidney damage in mice; test: Example 11: serum creatinine (Cre) in cisplatin-induced acute kidney damage model; type: in vivo, C57BL/6J mice; settings: for Serum creatinine (Cre) level after the assay, x (mean): group mean; for Serum creatinine (Cre) level after the assay, x (mean) / Serum creatinine (Cre) level after the assay: cisplatin model; for Serum creatinine (Cre) level after the assay: individual animals No. 1-7
# Method: 42 male C57BL/6J mice (age: 6 to 8 weeks, body weight 18-20 g, certificate number: 11400700238365) were purchased from Si Pei Fu (Beijing) Biotechnology Co., Ltd., and raised in an SPF-grade animal room of the Institute of Materia Medica, Chinese Academy of Medical Sciences, at a temperature of 20 to 25° C., a relative humidity of 40% to 70%, and a cycle of 12 hours of light and 12 hours of dark. The animals had free access to water and food. After 3 days of normal feeding, mice with good physical conditions after the veterinary examination were selected for this assay. Before grouping, a marker was used to mark on the base of the animals' tail. After grouping, each animal was marked with an ear cutout (7 mice in each group).
# Assay animals: 42 7-week-old male C57 mice were used for animal testing after an adaptive feeding.
# Group 1: blank control group;
# The preparation of the R01 formulation administration test solution was the same as that in Example 5: an appropriate amount of the R01 formulation was weighed according to the three dosages set in the assay, respectively, and an appropriate volume of 0.5% CMC-Na aqueous solution was added. The mixture was vortexed and sonicated until mixed evenly, to give the administration test solutions with concentrations of […], respectively, which were ready for use.
# Animal testing period: 7 days (excluding adaptive feeding), hereinafter referred to as: D1-D7.
# 1. The first group was a solvent control group: N=7, all mice were males (the same below); • a) 0.5% solution of sodium carboxymethyl cellulose was gavagely administered from D1 to D6 (twice a day for each animal, with an interval of 8 hours between the morning and the afternoon). • b) Physiological saline was intraperitoneally injected in one-time on D4. • c) On D7, blood was collected from the orbit for euthanasia (300 ul of serum was extracted), the left kidney was fixed in formaldehyde, and the right kidney was preserved in liquid nitrogen (WB study may be carried out).
# 1) The concentrations of urea nitrogen and creatinine in peripheral blood serum were tested.
# The body weight of the animals when being grouped for administration in each group was recorded. The body weight and the kidney weight at the end of the assay were also recorded, and the kidney coefficient was calculated. The creatinine and urea nitrogen values in the blood samples sent for testing were recorded. The kidneys were stained with HE and PAS, and the slides were scanned. A report was issued after the pathological analysis.
# The assay data were calculated and processed statistically using Microsoft Office Excel 2007 software. Unless otherwise specified, the data were expressed as mean±standard error (Mean±SE), and t-test was used for comparison between two groups.
# [3] = tested on: human esophageal cancer ECA109 transplanted tumor; test: Example 8: tumor growth in ECA109 transplanted tumor model; type: in vivo, nude mice; settings: DDP 5 mg/kg i.p. QW×4
# Text: The assay animals, calculation of tumor volume (TV), end of assay, data recording, calculation formula of tumor growth inhibition rate TGI (%), and statistical analysis method were the same as those in Example 3; the preparation of the administration formulation of the compound of formula (I) was the same as that in Example 5. An appropriate amount of CMC-Na solid was weighed, and an appropriate volume of deionized water was firstly added. The mixture was vortexed and stirred until the solid was completely dispersed and evenly distributed, to give a 0.5% CMC-Na aqueous solution, which was stored at 2 to 8° C. in a refrigerator. An appropriate amount of DDP was weighed and put into a glass bottle, and an appropriate amount of physiological saline was added to the bottle. […] This solution was prepared before each administration. Human esophageal cancer cells ECA109 were obtained from the Cell Bank of Wuhan University (CCTCC, cryopreserved in liquid nitrogen in the laboratory). […] The cells were pipetted with a pipette to disperse them evenly, and the cells were put into a 50-mL centrifuge tube, which was placed in an ice box. A 1-mL syringe was used to draw the cell suspension, which was injected subcutaneously into the axilla of the front right limb of a […]. Each animal was inoculated with 200 μL (1.0×10^7 cells/mouse) to establish an ECA109 transplanted tumor model in nude mice. After the inoculation, the animal status and tumor growth were regularly observed, and the tumor diameter was measured using an electronic vernier caliper. The data were input into an Excel spreadsheet to calculate the tumor volume. When the tumor volume reached 100 to 300 mm^3, animals in good health and with similar tumor volumes were selected and divided into groups using randomized block method. The day of grouping was regarded as the first day of the assay (D1). After the start of the assay, the tumor diameter was measured twice a week, the tumor volume was calculated, and the animal body weight was also weighed and recorded. [table]
structure (smiles),measurement,setting,value
COC1=C(OC)C(=O)C(CCCCCCCCCCOC(=O)Cc2c(C)n(C(=O)c3ccc(Cl)cc3)c3ccc(OC)cc23)=C(C)C1=O [compound of formula (I)],colony-forming ability,[1],decreased significantly
same,serum creatinine value,"[2]; cisplatin 10 mg/kg alone (vs blank, P<0.01) or with amifostine 50 mg/kg i.p. / R01 6, 18, 36 mg/kg bid",equivalent to that of the blank control group
same,"Serum creatinine (Cre) level after the assay, x (mean)",[2]; R01 6 mg/kg,18.4 mg/dL
same,"Serum creatinine (Cre) level after the assay, x (mean)",[2]; R01 18 mg/kg,15.4 mg/dL
same,"Serum creatinine (Cre) level after the assay, x (mean)",[2]; R01 36 mg/kg,15.3 mg/dL
same,Serum creatinine (Cre) level after the assay,"[2]; R01 6 mg/kg, listed as R01, 6 mg/kg",20 mg/dl (2×) and 23 mg/dl and 26 mg/dl and 17 mg/dl and 18 mg/dl and 5 mg/dl
same,Serum creatinine (Cre) level after the assay,"[2]; R01 18 mg/kg, listed as R01, 18 mg/kg",15 mg/dl (2×) and 12 mg/dl (2×) and 17 mg/dl and 16 mg/dl and 21 mg/dl
same,Serum creatinine (Cre) level after the assay,"[2]; R01 36 mg/kg, listed as R01, 36 mg/kg",15 mg/dl (3×) and 13 mg/dl and 17 mg/dl and 16 mg/dl (2×)
"N.N.[Cl][Pt][Cl] [DDP, cisplatin]",Mean tumor volume,[3]; D1,193 ± 9 mm^3
same,Mean tumor volume,[3]; D5,204 ± 5 mm^3
same,tumor growth inhibition rate (TGI),[3]; D5,(64%)
same,Mean tumor volume,[3]; D8,203 ± 11** mm^3
same,tumor growth inhibition rate (TGI),[3]; D8,(87%)
same,Mean tumor volume,[3]; D12,215 ± 10** mm^3
same,tumor growth inhibition rate (TGI),[3]; D12,(79%)
same,Mean tumor volume,[3]; D15,224 ± 8** mm^3
same,tumor growth inhibition rate (TGI),[3]; D15,(79%)
same,Mean tumor volume,[3]; D19,247 ± 8** mm^3
same,tumor growth inhibition rate (TGI),[3]; D19,(67%)
same,Mean tumor volume,[3]; D22,259 ± 8** mm^3
same,tumor growth inhibition rate (TGI),[3]; D22,(63%)
same,Mean tumor volume,[3]; D26,276 ± 9** mm^3
same,tumor growth inhibition rate (TGI),[3]; D26,(58%)
same,Mean tumor volume,[3]; D29,285 ± 9** mm^3
same,tumor growth inhibition rate (TGI),[3]; D29,(59%)
same,Mean tumor volume,[3]; D33,259 ± 12** mm^3
same,tumor growth inhibition rate (TGI),[3]; D33,(73%)
same,Mean tumor volume,[3]; D36,292 ± 11** mm^3
same,tumor growth inhibition rate (TGI),[3]; D36,(60%)
